# Source: publication PMC11292009, “Mapping protein binding sites by photoreactive fragment pharmacophores” (Communications Chemistry, 2024)
# “And” between values parts separate entries of the source, which are not always exact repeats. Identical values can stand only once.
# Key:
# Type in all cases: binding
# [1] = tested on: carbonic anhydrase II (CA); assay: Intact protein MS photoaffinity labeling screen, carbonic anhydrase; conditions: intact protein MS after 10 min irradiation
# Method in brief: (§1)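 In a single-fragment-per-well plate, protein was exposed to fragment for 15 min before direct intact-mass analysis; labeled protein was identified by the corresponding mass increase.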
# [2] = tested on: T1, BRD4-BD1; assay: Intact MS photoaffinity labeling screen, BRD4-BD1 (302 nm, LCMS-TOF); conditions: for MS labeling percentage, BRD4: BRD4-BD1, 302 nm 10 min; for BRD4-BD1: experimental hit status flag (0/1); for experimental hit status BRD4-BD1: 0/1 flag
# T1 construct: screened the PhP library against the first bromodomain of BRD4 (BRD4-BD1); purchased GSK/GenScript
# Method in brief: (§2)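 Labeling detected as mass additions in deconvoluted intact-protein LCMS-TOF spectra. Protein at 1 μM in PBS was first mixed with one fragment per well on ice for 15 min, followed by 10 min UV exposure at 302 nm.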
# [3] = tested on: T2, STAT5B-NTD; assay: Intact MS photoaffinity labeling screen, STAT5B-NTD (365 nm, UHPLC-MS); conditions: for MS labeling percentage, STAT5B: STAT5B-NTD, 365 nm 10 min, no photocatalyst; for STAT5B-NTD: experimental hit status flag (0/1); for experimental hit status STAT5B-NTD: 0/1 flag;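 as to MS labeling percentage, STAT5B: 0.17 µL of 100 mM DMSO fragment stock added to the protein sample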
# T2 construct: His-SUMO (N, cleaved yes); made in house; host or cells: E. coli BL21 RILP
# Method in brief: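 Intact-protein labeling detected by UHPLC-MS in positive ion mode over m/z 100–2000. Samples were first photo-crosslinked at 365 nm for 10 min at 4 °C. Before irradiation, 7 µM STAT5B in PBS pH 7.4 was pre-incubated with probe for 1 h in the dark at room temperature.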
# [4] = tested on: T3, KRas^G12D; assay: Intact MS photoaffinity labeling screen, KRas G12D (302 nm, LCMS-TOF); conditions: for MS labeling percentage, KRas: KRas G12D, 302 nm 10 min; for KRAS-G12D: experimental hit status flag (0/1); for experimental hit status KRAS-G12D: 0/1 flag
# T3 construct: purchased GSK/GenScript
# Method in brief: as §2
# [5] = tested on: CA, Lyo, Myo, BRD4-BD1, KRas G12D, STAT5B-NTD; assay: Intact MS labeling compared over all protein targets; conditions: for Labeling of the other protein targets (vs. preferred target): each of the other targets
# Procedure: Using a plate-based format with one fragment per well, each fragment was incubated with the target proteins for 15 min to allow for the formation of non-covalent interactions. The plate was then irradiated at 302 or 365 nm for 10 min to enable the bound fragments to crosslink to the protein[26]. Finally, the results were directly analyzed from the plate using intact protein mass spectrometry by observing the mass additions that correspond to successful labeling (Fig. 2c, for labeling % values see Supplementary data). The library was first characterized against three benchmark proteins like carbonic anhydrase (CA), lysozyme (Lyo), and myoglobin (Myo).
# The PhP library was screened against BRD4-BD1 and KRas^G12D as follows. Using a Labcyte Echo® 555 Liquid Handler, 150 nL of fragment solution (20 mM) was transferred into a Greiner 384 low-volume plate (white) to prepare the probe plate. The probe plate was placed on ice. 15 μL of protein stock solution (1 μM BRD4-BD1 (GSK/GenScript) or KRas^G12D (GSK/GenScript) in PBS buffer) was dispensed into wells containing fragments. The plate was left on ice for 15 min for incubation, then irradiated at 302 nm for 10 min, and centrifuged (1000 rpm, 1 min) to remove any bubbles. The plate was then analyzed by LCMS-TOF mass spectrometry (Agilent 1200 series liquid chromatography with Agilent Bio-HPLC PLRP-S (1000 Å, 5 µm × 50 mm × 1.0 mm, PL1312-1502) reverse phase HPLC column at 70 °C equipped with an Agilent G6224 time-of-flight (ToF), see Supplementary Note 2 for the full protocols). The deconvoluted spectra were analyzed using R Studio software.
# During the analysis, the column temperature was maintained at a constant 60 °C, and a sample volume of 3 µL was injected for each analysis. Data acquisition was conducted in positive ion mode within the m/z 100–2000 (mass-to-charge ratio) range. For the full protocol and spectra of the hits, see Supplementary Note 2.
# [6] = tested on: myoglobin (Myo); assay: Intact protein MS photoaffinity labeling screen, myoglobin; conditions: intact protein MS after 10 min irradiation
# Method in brief: as §1
# [7] = tested on: lysozyme (Lyo); assay: Intact protein MS photoaffinity labeling screen, lysozyme; conditions: intact protein MS after 10 min irradiation
# Method in brief: as §1
# [8] = tested on: T2, STAT5B-NTD; assay: Intact MS labeling screen, STAT5B-NTD conjugated with photocatalyst Ir-G2-PEG3-COOH (450 nm); conditions: 450 nm 10 min;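 also: 0.14 µL of 100 mM DMSO fragment stock added to the conjugate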
# Method in brief: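 Ir-G2-PEG3-COOH photocatalyst (10 eq) activated 30 min with EDC/NHS/BOP, then conjugated to STAT5B-NTD (7 µM) overnight at RT or 1 h at 37 °C in dark. PhP added, 1 h dark, then 450 nm irradiation 10 min at 4 °C; labeling read by intact LC-MS, positive ion mode, m/z 100–2000.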
# [9] = hit flag 1/0, sheet PhP, photoaffinity labeling screen
# [10] = PhP library sheet "PhP", binary flag printed as 0 or 1, key not given
# [11] = hit status flag, 1 = hit, 0 = no hit
SMILES,"MS labeling percentage, CA [1]","MS labeling percentage, BRD4 [2]",BRD4-BD1 [2],"MS labeling percentage, STAT5B [3]",STAT5B-NTD [3],"MS labeling percentage, KRas [4]",KRAS-G12D [4],Labeling of the other protein targets (vs. preferred target) [5],"MS labeling percentage, Myo [6]","MS labeling percentage, Lyo [7]","MS labeling percentage, STAT5B+photocat [8]",experimental hit status BRD4-BD1 [2],experimental hit status STAT5B-NTD [3],experimental hit status KRAS-G12D [4],also measured
"CC(Cc1ccc(O)c(O)c1)NC(=O)CCC1(C)N=N1 (stereo not drawn) [PhP001, N1=NC1(C)CCC(=O)NC(C)Cc2ccc(O)c(O)c2]",0%,0.6%,0,0%,0,0%,0,> 1% and < 1%,0.2%,19.2%,0%,–,–,–,–
"Cn1ccnc1CCNC(=O)CCC1(C)N=N1 [PhP003, Cn1ccnc1CCNC(=O)CCC2(C)N=N2]",4.7%,1.1%,0,0%,0,0.8%,0,> 1.1% and < 1.1%,0.2%,0%,0.8%,–,–,–,–
"CC1(CCC(=O)NC2CCN(c3ccc(F)cc3)CC2)N=N1 [PhP012, N1=NC1(C)CCC(=O)NC2CCN(CC2)c3ccc(F)cc3]",0.9%,2.8%,0,0%,0,15.8%,0,> 3% and < 3%,1%,2.6%,1%,–,–,–,–
"COc1ccc(S(=O)(=O)N2CCC(NC(=O)CCC3(C)N=N3)CC2)cc1 [PhP018, COc1ccc(cc1)S(=O)(=O)N2CCC(CC2)NC(=O)CCC3(C)N=N3]",17.7%,65.5%,–,0%,–,42%,–,–,19.9%,3.7%,0.7%,0,0,0,Number of proteins labeled ([5]; of the six protein targets): four
"COc1ccc(CCNC(=O)CCC2(C)N=N2)c2ccccc12 [PhP034, c1cccc(c12)c(OC)ccc2CCNC(=O)CCC3(C)N=N3]",4.7%,10.6%,–,0%,–,67.8%,–,–,1.7%,1.7%,1.1%,0,0,0,Number of targets labeled in higher than 10% amount ([5]; of the six protein targets): two
"CC1(CCC(=O)NCCNS(=O)(=O)c2cccc([N+](=O)[O-])c2)N=N1 [PhP035, N1=NC1(C)CCC(=O)NCCNS(=O)(=O)c2cccc(c2)N(=O)=O]",1.8%,3.7%,–,0%,–,2%,–,–,1.3%,0.3%,9.7%,0,0,0,Labeling efficiency over all protein targets (mean ± spread) [5]: 1.5 ± 1.2%
"Cc1cccc(-c2cnc(CNC(=O)CCC3(C)N=N3)[nH]2)c1 [PhP037, Cc1cccc(c1)-c2cnc([nH]2)CNC(=O)CCC3(C)N=N3]",0.9%,4.8%,–,2%,–,11.2%,–,–,1.4%,0%,1.5%,0,0,0,Labeling efficiency over all protein targets (mean ± spread) [5]: 3.4 ± 3.8%
"COc1ccc(OC)c(C(O)C(C)NC(=O)CCC2(C)N=N2)c1 (stereo not drawn) [PhP038, COc1ccc(OC)c(c1)C(O)C(C)NC(=O)CCC2(C)N=N2]",3.6%,25.5%,–,4.8%,–,62.1%,–,–,1.1%,3.6%,5.1%,–,–,–,"BRD4-BD1 (experimental hit status) [2, 9]: 0; STAT5B-NTD (experimental hit status) [3, 9]: 0; KRAS-G12D (experimental hit status) [4, 9]: 0; Number of targets labeled in higher than 10% amount ([5]; of the six protein targets): two"
"CC1(CCC(=O)NCCN2CCN(c3ccc(C(F)(F)F)cn3)CC2)N=N1 [PhP096, N1=NC1(C)CCC(=O)NCCN2CCN(CC2)c3ccc(cn3)C(F)(F)F]",0%,0.3%,–,0%,–,0%,–,–,0.1%,0%,1.1%,–,–,–,"BRD4-BD1 (experimental hit status) [2, 10]: 0; STAT5B-NTD (experimental hit status) [3, 10]: 0; KRAS-G12D (experimental hit status) [4, 10]: 0"
"CN(C)CC(=O)Nc1cccc(NC(=O)CCC2(C)N=N2)c1 [PhP100, CN(C)CC(=O)Nc1cccc(c1)NC(=O)CCC2(C)N=N2]",0.1%,0.6%,–,1%,–,0%,–,–,0.1%,0%,0%,–,–,–,"BRD4-BD1 (experimental hit status) [2, 11]: 0; STAT5B-NTD (experimental hit status) [3, 11]: 0; KRAS-G12D (experimental hit status) [4, 11]: 0"
